Measurements from patent publication US10150759B2, “1,4-pyridone bicycic heteroaryl compounds” (Epizyme, Inc., priority 2012, dated 2018).

Key:
[1] = biological target: wild-type EZH2 (PRC2 enzyme) (Homo sapiens (Human), UniProt Q15910); assay: PRC2 enzyme assay on peptide substrate (wild-type EZH2); assay type: biochemical; details: wild-type PRC2 4 nM, H3K27me0 peptide substrate, 3H-SAM; read-out: WT EZH2 IC50
Description: S-adenosylmethionine (SAM), S-adenosylhomocyteine (SAH), bicine, KCl, Tween20, dimethylsulfoxide (DMSO) and bovine skin gelatin (BSG) were purchased from Sigma-Aldrich at the highest level of purity possible. Dithiothreitol (DTT) was purchased from EMD. ^3H-SAM was purchased from American Radiolabeled Chemicals with a specific activity of 80 Ci/mmol. 384-well streptavidin Flashplates were purchased from PerkinElmer.
Peptides representative of human histone H3 residues 21-44 containing either an unmodified lysine 27 (H3K27me0) or dimethylated lysine 27 (H3K27me2) were synthesized with a C-terminal G(K-biotin) linker-affinity tag motif and a C-terminal amide cap by 21st Century Biochemicals. The peptides were high-performance liquid chromatography (HPLC) purified to greater than 95% purity and confirmed by liquid chromatography mass spectrometry (LC-MS). The sequences are listed below.
Human PRC2 enzymes were purified as 4-component enzyme complexes co-expressed in Spodoptera frugiperda (sf9) cells using a baculovirus expression system. The subunits expressed were wild-type EZH2 (NM_004456) or EZH2 Y641F, N, H, S or C mutants generated from the wild-type EZH2 construct, EED (NM_003797), Suz12 (NM_015355) and RbAp48 (NM_005610). The EED subunit contained an N-terminal FLAG tag that was used to purify the entire 4-component complex from sf9 cell lysates. The purity of the complexes met or exceeded 95% as determined by SDS-PAGE and Agilent Bioanalyzer analysis. Concentrations of enzyme stock concentrations (generally 0.3-1.0 mg/mL) was determined using a Bradford assay against a bovine serum albumin (BSA) standard.
The assays were all performed in a buffer consisting of 20 mM bicine (pH=7.6), 0.5 mM DTT, 0.005% BSG and 0.002% Tween20, prepared on the day of use. […] The plates were then read in a PerkinElmer TopCount platereader to measure the quantity of ^3H-labeled peptide bound to the Flashplate surface, measured as disintegrations per minute (dpm) or alternatively, referred to as counts per minute (cpm). […]

[2] = test system: H3K27me3 in WSU-DLCL2 cells; assay: WSU-DLCL2 methylation assay (H3K27me3 ELISA); assay type: cell-based; details: Homo sapiens, WSUDLCL2, 96 hours incubation, H3K27me3 normalized to total H3
Description: WSU-DLCL2 suspension cells were purchased from DSMZ (German Collection of Microorganisms and Cell Cultures, Braunschweig, Germany). RPMI/Glutamax Medium, Penicillin-Streptomycin, Heat Inactivated Fetal Bovine Serum, and D-PBS were purchased from Life Technologies, Grand Island, N.Y., USA. Extraction Buffer and Neutralization Buffer (5×) were purchased from Active Motif, Carlsbad, Calif., USA. Rabbit anti-Histone H3 antibody was purchased from Abcam, Cambridge, Mass., USA. Rabbit anti-H3K27me3 and HRP-conjugated anti-rabbit-IgG were purchased from Cell Signaling Technology, Danvers, Mass., USA. TMB “Super Sensitive” substrate was sourced from BioFX Laboratories, Owings Mills, Md., USA. IgG-free Bovine Serum Albumin was purchased from Jackson ImmunoResearch, West Grove, Pa., USA. PBS with Tween (10×PBST) was purchased from KPL, Gaithersburg, Md., USA. Sulfuric Acid was purchased from Ricca Chemical, Arlington, Tex., USA. Immulon ELISA plates were purchased from Thermo, Rochester, N.Y., USA. V-bottom cell culture plates were purchased from Corning Inc., Corning, N.Y., USA. V-bottom polypropylene plates were purchased from Greiner Bio-One, Monroe, N.C., USA.
WSU-DLCL2 suspension cells were maintained in growth medium (RPMI 1640 supplemented with 10% v/v heat inactivated fetal bovine serum and 100 units/mL penicillin-streptomycin) and cultured at 37° C. under 5% CO2. […]

Sequence of wild-type EZH2 (PRC2 enzyme) (Q15910 other isoform, or with tags, fused parts or gaps): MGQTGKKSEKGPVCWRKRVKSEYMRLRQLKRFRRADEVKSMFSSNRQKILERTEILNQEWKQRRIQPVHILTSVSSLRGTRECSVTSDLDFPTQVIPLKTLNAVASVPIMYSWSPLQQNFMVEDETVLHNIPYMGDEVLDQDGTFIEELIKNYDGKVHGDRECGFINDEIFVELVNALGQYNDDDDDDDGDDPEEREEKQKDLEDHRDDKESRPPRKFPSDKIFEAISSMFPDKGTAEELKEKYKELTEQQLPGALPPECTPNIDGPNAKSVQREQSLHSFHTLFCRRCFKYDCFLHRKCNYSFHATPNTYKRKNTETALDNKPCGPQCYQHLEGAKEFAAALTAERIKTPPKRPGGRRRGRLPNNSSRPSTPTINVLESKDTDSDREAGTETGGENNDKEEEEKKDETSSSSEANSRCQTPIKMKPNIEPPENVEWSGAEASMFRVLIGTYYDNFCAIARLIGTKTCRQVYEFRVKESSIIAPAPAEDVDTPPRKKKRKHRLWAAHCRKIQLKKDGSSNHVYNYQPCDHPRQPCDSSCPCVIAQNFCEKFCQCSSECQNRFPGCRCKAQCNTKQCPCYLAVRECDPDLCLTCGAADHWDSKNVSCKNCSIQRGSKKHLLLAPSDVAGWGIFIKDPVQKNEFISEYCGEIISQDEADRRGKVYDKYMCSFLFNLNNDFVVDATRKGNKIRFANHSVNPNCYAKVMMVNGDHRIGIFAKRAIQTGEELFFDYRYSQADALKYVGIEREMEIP
Sequence of wild-type EZH2 (PRC2 enzyme) (O75530 whole entry partner): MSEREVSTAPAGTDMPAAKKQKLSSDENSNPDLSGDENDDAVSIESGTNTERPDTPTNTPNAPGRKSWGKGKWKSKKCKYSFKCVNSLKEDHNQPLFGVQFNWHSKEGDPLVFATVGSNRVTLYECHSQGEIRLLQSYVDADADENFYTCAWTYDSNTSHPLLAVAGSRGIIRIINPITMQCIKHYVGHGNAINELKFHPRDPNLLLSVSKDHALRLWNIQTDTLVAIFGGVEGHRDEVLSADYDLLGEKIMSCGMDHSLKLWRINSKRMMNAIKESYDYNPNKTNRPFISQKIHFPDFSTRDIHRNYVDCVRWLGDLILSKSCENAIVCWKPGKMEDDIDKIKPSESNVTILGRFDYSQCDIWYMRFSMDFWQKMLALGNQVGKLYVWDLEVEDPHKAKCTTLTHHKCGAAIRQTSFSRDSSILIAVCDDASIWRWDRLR
Sequence of wild-type EZH2 (PRC2 enzyme) (Q15022 whole entry partner): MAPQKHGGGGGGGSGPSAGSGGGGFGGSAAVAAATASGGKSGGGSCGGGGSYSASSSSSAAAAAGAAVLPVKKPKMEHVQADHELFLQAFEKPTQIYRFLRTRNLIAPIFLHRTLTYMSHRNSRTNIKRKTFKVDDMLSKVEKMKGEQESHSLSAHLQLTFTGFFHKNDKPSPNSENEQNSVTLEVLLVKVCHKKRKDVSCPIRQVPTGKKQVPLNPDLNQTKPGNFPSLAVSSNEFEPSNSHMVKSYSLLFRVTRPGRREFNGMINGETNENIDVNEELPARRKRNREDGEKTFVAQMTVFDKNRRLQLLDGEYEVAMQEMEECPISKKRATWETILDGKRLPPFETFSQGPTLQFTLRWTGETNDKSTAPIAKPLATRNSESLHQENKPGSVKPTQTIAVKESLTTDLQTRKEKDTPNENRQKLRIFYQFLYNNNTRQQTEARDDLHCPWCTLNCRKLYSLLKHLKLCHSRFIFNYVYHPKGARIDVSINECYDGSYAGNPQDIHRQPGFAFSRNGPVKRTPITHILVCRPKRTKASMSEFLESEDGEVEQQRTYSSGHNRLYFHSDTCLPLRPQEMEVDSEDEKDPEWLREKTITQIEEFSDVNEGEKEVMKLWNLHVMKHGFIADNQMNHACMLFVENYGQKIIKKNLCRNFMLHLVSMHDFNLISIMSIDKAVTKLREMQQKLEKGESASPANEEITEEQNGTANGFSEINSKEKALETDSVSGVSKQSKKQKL
Sequence of wild-type EZH2 (PRC2 enzyme) (Q09028 whole entry partner): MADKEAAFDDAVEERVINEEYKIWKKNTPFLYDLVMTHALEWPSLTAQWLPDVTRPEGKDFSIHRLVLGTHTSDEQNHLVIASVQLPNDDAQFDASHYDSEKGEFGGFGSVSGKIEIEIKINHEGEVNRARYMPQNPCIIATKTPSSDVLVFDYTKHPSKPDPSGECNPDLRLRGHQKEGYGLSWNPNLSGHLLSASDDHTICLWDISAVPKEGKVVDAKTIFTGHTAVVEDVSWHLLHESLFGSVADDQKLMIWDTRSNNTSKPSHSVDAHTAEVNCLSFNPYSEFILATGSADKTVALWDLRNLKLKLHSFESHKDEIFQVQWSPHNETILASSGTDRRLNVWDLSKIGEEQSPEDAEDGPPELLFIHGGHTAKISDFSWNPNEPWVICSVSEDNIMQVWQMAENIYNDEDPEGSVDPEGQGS

| IC50 [1] [µM] | Compound | IC50 [2] [µM] |
| --- | --- | --- |
| 7.1 | Cc1cc(=O)c(CNC(=O)c2cc(C3CC(C)(C)NC(C)(C)C3)nc3c2cnn3C(C)C)c(C)[nH]1 [Compound 2, N-((2,6-dimethyl-4-oxo-1,4-dihydropyridin-3-yl)methyl)-1-isopropyl-6-(2,2,6,6-tetramethylpiperidin-4-yl)-1H-pyrazolo [3,4-b]pyridine-4-carboxamide] | – |
| 0.028 | CCC(C)n1cc(C)c2c(C(=O)NCc3c(C)[nH]c(C)cc3=O)cc(-c3ccc(N4CCNCC4)nc3)cc21 (stereo not shown) [Compound 4, 1-(sec-butyl)-N-((2,6-dimethyl-4-oxo-1,4-dihydropyridin-3-yl)methyl)-3-methyl-6-(6-(piperazin-1-yl)pyridin-3-yl)-1H-indole-4-carboxamide] | 11.9 |
| 6.6 | Cc1cc(=O)c(CNC(=O)c2cc(C3=CC(C)(C)NC(C)(C)C3)nc3c2cnn3C(C)C)c(C)[nH]1 [Compound 1, N-((2,6-dimethyl-4-oxo-1,4-dihydropyridin-3-yl)methyl)-1-isopropyl-6-(2,2,6,6-tetramethyl-1,2,3,6-tetrahydropyridin-4-yl)-1H-pyrazolo[3,4-b]pyridine-4-carboxamide] | – |
